Marks after values point to notes of the source that are not given here.
Key:
[1] = Carboplatin tolerability in mice with no cancer (Reference Example 3); assay type: in vivo, BALB/cA Jcl-nu mice; settings: tail vein, Day 1
Procedure: To BALB/cA Jcl-nu mice with no cancer (5 mice in each group), carboplatin (CBDCA) was administered at 50, 70, 100, 140, or 200 mg/kg/day through the tail vein on Day 1. In the groups treated with the doses of 140 mg/kg/day or more, strong body weight reductions of 20% or more and death cases were observed. The recommended dose of carboplatin for mice was thus 100 mg/kg/day.

[2] = test system: human lung cancer cell line (Lu-134); experiment: Lu-134 xenograft, FTD·TPI combination drug and carboplatin (Example 2); assay type: in vivo; settings: Day 29, tail vein Day 1 and Day 8
Procedure: (§1) As an index of the anti-tumor effect, the TVs on Days 5, 8, 11, 15, 19, 22, 26, and 29 were calculated in each group. In accordance with the following equation, the relative tumor volume (RTV) to that on Day 0 was calculated and compared with the RTV of the untreated group (control).
(§2) The tumor growth inhibition rate (IR) on Day 29 on the basis of RTV values was calculated in accordance with the following equation. IR(%)=[1−(mean RTV value of treated group)/(mean RTV value of control group)]×100
In a similar manner to that in Example 1, to BALB/cA Jcl-nu mice to which a human lung cancer cell line (Lu-134) had been transplanted, the FTD⋅TPI combination drug or carboplatin alone, or a combination of the two was administered, and enhancement of the anti-tumor effect was examined.
(§3) The FTD⋅TPI combination drug (a mixture of FTD and TPI at a molar ratio of 1:0.5) was prepared for administration at doses of 75 and 150 mg/kg/day in terms of FTD. Carboplatin (Paraplatin inj., Bristol-Myers) was prepared for administration at doses of 50 and 100 mg/kg/day. The FTD⋅TPI combination drug was orally administered on Days 1 to 14 consecutively, and carboplatin was administered through the tail vein on Day 1 and Day 8. In the combination administration groups, the doses and administration schedules of the FTD⋅TPI combination drug and carboplatin were the same as those of the corresponding monotherapy groups. The TV and body weight of each group were measured on Days 4, 8, 11, 15, 19, 22, 26, and 29, and the anti-tumor effect and side effects were evaluated.

[3] = Cisplatin tolerability (body weight) in KM20C-transplanted mice (Reference Example 2); assay type: in vivo, BALB/cA Jcl-nu mice
Procedure: To BALB/cA Jcl-nu mice (8 mice in each group) to which a human colon cancer cell line KM20C had been transplanted, cisplatin was administered through the tail vein on Day 1 and Day 8. At a dose of 7 mg/kg/day, body weight reduction was 20% or less, and this dose was feasible. Accordingly, the recommended dose of cisplatin (CDDP) for mice was 7 mg/kg/day.

[4] = test system: human lung cancer cell line (Lu-134); experiment: Lu-134 xenograft, FTD·TPI combination drug and cisplatin (Example 1); assay type: in vivo; settings: Day 29, tail vein Day 1 and Day 8
Procedure: A human lung cancer cell line (Lu-134) was transplanted to the right chest of 5 to 6-week-old BALB/cA Jcl-nu mice. After the tumor transplantation, the long diameter (mm) and the short diameter (mm) of the tumor were measured, and the tumor volume (TV) was calculated.
The FTD⋅TPI combination drug (a mixture of FTD and TPI at a molar ratio of 1:0.5) was prepared for administration at doses of 75 and 150 mg/kg/day in terms of FTD. Cisplatin (Randa inj., Nippon Kayaku Co., Ltd) was prepared for administration at doses of 3.5 and 7 mg/kg/day. The FTD⋅TPI combination drug was orally administered on Days 1 to 14 consecutively, and cisplatin was administered through the tail vein on Day 1 and Day 8. In the combination administration groups, the doses and administration schedules of the FTD⋅TPI combination drug and cisplatin were the same as those of the corresponding monotherapy groups.
as §1
TV(mm^3)=(long diameter×short diameter^2)/2 RTV=(TV on Day 29)/(TV on Day 0)
as §2
To evaluate body weight reduction as an index of side effects, body weights were measured in each group on each measurement day.

[5] = Oxaliplatin tolerability in mice with no cancer (Reference Example 4); assay type: in vivo, BALB/cA Jcl-nu mice; settings: tail vein, Day 1 and Day 8
Procedure: To BALB/cA Jcl-nu mice with no cancer (4 mice in each group), oxaliplatin (l-OHP) was administered at 10, 12, 15, or 22.5 mg/kg/day through the tail vein on Day 1 and Day 8. In the groups treated with the doses of 15 mg/kg/day or more, strong body weight reductions of 20% or more were observed. The recommended dose of oxaliplatin for mice was thus 12 mg/kg/day.

[6] = test system: human colon cancer cell strain (KM20C); experiment: KM20C xenograft, FTD·TPI combination drug and oxaliplatin (Example 3-1); assay type: in vivo; settings: Day 15, tail vein Day 1 and Day 8
Procedure: as §1
IR(%)=[1−(mean RTV value of treated group)/(mean RTV value of control group)]×100
In a similar manner to that in Example 1, to BALB/cA Jcl-nu mice to which a human colon cancer cell strain (KM20C) had been transplanted, the FTD⋅TPI combination drug or oxaliplatin alone, or a combination of the two was administered, and enhancement of the anti-tumor effect was examined.
as §3, with “FTD. Oxaliplatin (Eloxatin, Sanofi-Aventis)” for “FTD. Carboplatin (Paraplatin inj., Bristol-Myers)”, “of 6” for “of 50”, “and 12” for “and 100”, “and oxaliplatin” for “and carboplatin”, “4, 7, 10, and” for “4, 8, 11,”, “15,” for “15, 19, 22, 26, and 29,”

[7] = test system: human colon cancer cell strain (SW48); experiment: SW48 xenograft, FTD·TPI combination drug and oxaliplatin (Example 3-2); assay type: in vivo; settings: tail vein Day 1 and Day 8; for IR (tumor growth inhibition rate) / RTV (mean ± SD): Day 29
Procedure: In a similar manner to that in Example 1, to BALB/cA Jcl-nu mice to which a human colon cancer cell strain (SW48) had been transplanted, the FTD⋅TPI combination drug or oxaliplatin alone, or a combination of the two was administered, and enhancement of the anti-tumor effect was examined.
(§4) The FTD⋅TPI combination drug (a mixture of FTD and TPI at a molar ratio of 1:0.5) was prepared for administration at a dose of 150 mg/kg/day in terms of FTD. Oxaliplatin (Eloxatin, Sanofi-Aventis) was prepared for administration at doses of 7 and 12 mg/kg/day. The FTD⋅TPI combination drug was orally administered on Days 1 to 14 consecutively, and oxaliplatin was administered through the tail vein on Day 1 and Day 8. In the combination administration groups, the doses and administration schedules of the FTD⋅TPI combination drug and oxaliplatin were the same as those of the corresponding monotherapy groups. The TV and body weight of each group were measured on Days 3, 7, 11, 15, 18, 22, 25, and 29, and the anti-tumor effect and side effects were evaluated.
The number of days that elapsed until the tumor volume reached 5 times that on Day 0 (RTV5) was determined, and the growth delay effect was evaluated (Cancer Chemother Pharmacol 57: 709-718, 2006; Int J Radiat Oncol Biol Phys 86 (3): 469-76, 2013).

[8] = test system: human gastric cancer cell line (MKN74); experiment: MKN74 xenograft, FTD·TPI combination drug and oxaliplatin (Example 3-3); assay type: in vivo; settings: tail vein Day 1 and Day 8; for IR (tumor growth inhibition rate) / RTV (mean ± SD): Day 29
Procedure: (§5) In a similar manner to that in Example 1, to BALB/cA Jcl-nu mice to which a human gastric cancer cell line (MKN74) was transplanted, the FTD⋅TPI combination drug or oxaliplatin alone, or a combination of the two was administered, and enhancement of the anti-tumor effect was examined.
as §4
(§6) The number of days that elapsed until the tumor volume reached 5 times that on Day 0 (RTV5) was determined, and the growth delay effect was evaluated.

[9] = test system: human gastric cancer cell line (MKN74/5-FU), 5-FU resistant; experiment: MKN74/5-FU xenograft, FTD·TPI combination drug and oxaliplatin (Example 3-4); assay type: in vivo; settings: tail vein Day 1 and Day 8; for IR (tumor growth inhibition rate) / RTV (mean ± SD): Day 29
Procedure: as §5, with “(MKN74/5-FU) that is a 5-FU resistant cell line had been” for “(MKN74) was”
as §4, §6

N.N.O=C([O-])C1(C(=O)[O-])CCC1.[Pt+2] [Carboplatin (CBDCA), cis-diammine (1,1-cyclobutanedicarboxylato)-platinum (II)]
body weight reductions ([1]; doses of 140 mg/kg/day or more): ≥ 20%
death ([1]; doses of 140 mg/kg/day or more): death cases
recommended dose for mice [1]: 100 mg/kg/day
IR (tumor growth inhibition rate) ([2]; 50 mg/kg/day): 25.3%
RTV (mean ± SD) ([2]; 50 mg/kg/day): 26.86 ± 2.44
IR (tumor growth inhibition rate) ([2]; 100 mg/kg/day): 57.2%
RTV (mean ± SD) ([2]; 100 mg/kg/day): 15.40 ± 4.38

N.N.[Cl][Pt][Cl] [Cisplatin (CDDP), (SP-4-2)-diamminedichloroplatinum]
body weight reduction ([3]; 7 mg/kg/day, tail vein Day 1 and Day 8): ≤ 20%
recommended dose for mice ([3]; tail vein, Day 1 and Day 8): 7 mg/kg/day
IR (tumor growth inhibition rate) ([4]; 3.5 mg/kg/day): 21.0%
RTV (mean ± SD) ([4]; 3.5 mg/kg/day): 29.12 ± 2.79
IR (tumor growth inhibition rate) ([4]; 7.0 mg/kg/day): 49.6%
RTV (mean ± SD) ([4]; 7.0 mg/kg/day): 18.56 ± 4.64

O=C1[O][Pt]2([NH][C@@H]3CCCC[C@H]3[NH]2)[O]C1=O [Oxaliplatin (l-OHP), [(1R,2R)-cyclohexane-1,2-diamine](ethanedioato-O,O′)platinum(II)]
body weight reductions ([5]; doses of 15 mg/kg/day or more): ≥ 20%
recommended dose for mice [5]: 12 mg/kg/day
IR (tumor growth inhibition rate) ([6]; 6 mg/kg/day): 36.4%
RTV (mean ± SD) ([6]; 6 mg/kg/day): 6.99 ± 0.32
IR (tumor growth inhibition rate) ([6]; 12 mg/kg/day): 55.0%
RTV (mean ± SD) ([6]; 12 mg/kg/day): 4.94 ± 0.53
RTV5 (the period, RTV reaches 5) ([7]; 7 mg/kg/day): 8.9 ± 0.4 days
RTV5 (the period, RTV reaches 5) ([7]; 12 mg/kg/day): 10.0 ± 0.8^$ days
IR (tumor growth inhibition rate) ([7]; 7 mg/kg/day): 22.1%
RTV (mean ± SD) ([7]; 7 mg/kg/day): 47.63 ± 4.33
IR (tumor growth inhibition rate) ([7]; 12 mg/kg/day): 36.7%
RTV (mean ± SD) ([7]; 12 mg/kg/day): 38.72 ± 3.69*^,#
RTV5 (the period, RTV reaches 5) ([8]; 7 mg/kg/day): 15.8 ± 0.6^$ days
RTV5 (the period, RTV reaches 5) ([8]; 12 mg/kg/day): 18.5 ± 0.8^$ days
IR (tumor growth inhibition rate) ([8]; 7 mg/kg/day): 20.7%
RTV (mean ± SD) ([8]; 7 mg/kg/day): 12.67 ± 0.74
IR (tumor growth inhibition rate) ([8]; 12 mg/kg/day): 35.8%
RTV (mean ± SD) ([8]; 12 mg/kg/day): 10.25 ± 0.87
RTV5 (the period, RTV reaches 5) ([9]; 7 mg/kg/day): 18.6 ± 1.4^$ days
RTV5 (the period, RTV reaches 5) ([9]; 12 mg/kg/day): 20.1 ± 1.3^$ days
IR (tumor growth inhibition rate) ([9]; 7 mg/kg/day): 33.7%
RTV (mean ± SD) ([9]; 7 mg/kg/day): 11.23 ± 1.60
IR (tumor growth inhibition rate) ([9]; 12 mg/kg/day): 40.5%
RTV (mean ± SD) ([9]; 12 mg/kg/day): 10.08 ± 1.77

— patent US10092589B2, “Anti-tumor agent containing anti-tumor platinum complex, and anti-tumor effect enhancer” (Taiho Pharmaceutical Company Limited, priority 2014, dated 2018)
